In patent US20230322822A1, “ARYL PHOSPHOROUS OXIDE COMPOUNDS AND USE THEREOF” (Chengdu Di'ao Jiuhong Pharmaceutical Factory, priority 2020, published 2023):
Read-outs that look alike come from different tables or passages of the source.

Columns and labels:
[1] = target: EGFR-WT (Homo sapiens (Human), UniProt P00533); assay: Enzymatic activity test (ADP-Glo) EGFR-WT; assay type: biochemical; settings: kinase
Experimental: • 1. […] Test information:
To assess the effect of compounds on the activity of wild-type and mutant EGFR kinases, kinase activity was tested by measuring ATP consumption in an enzymatic reaction using an ADP-Glo (Promega Corporation) kit. Samples to be tested were dissolved in DMSO and diluted in a gradient. In a microplate, an EGFR kinase, a reaction buffer (containing Tris-HCl with a pH of 7.5, MgCl2, DTT and BSA), a kinase substrate Poly(Glu4, Tyr1) and a sample (a total volume of 20 μL per well) were added per well, while a blank control (no enzyme and sample) and a negative control (no sample) were set up; incubated for 15 minutes at 23° C.; added with 5 μL of ATP, and reacted at 23° C. for 60 minutes; added with ADP-Glo Reagent, and continuously reacted for 40 minutes at room temperature to inactivate the redundant ATP; then, added with a Kinase Detection Reagent, and reacted at room temperature for 30 minutes, then the chemiluminescence intensity L of each well was measured. […] IC50 values were calculated according to the above calculation using 4Parameter Logistic Model in XLfit software. • 3.

[2] = tested on: BaF3 EML-4-ALK-L1196M cell line; assay: Cell anti-proliferation test 4 (CCK-8), BaF3 EML-4-ALK-L1196M; assay type: cell-based; settings: Ba/F3 EML4-ALK-L1196M, BaF3 EML-4-ALK-L1196M cells, CCK-8, 72 hours
Experimental: BaF3 EML-4-ALK-L1196M cell line, brand: KYinno, article number: KC-0102
Cell Counting Kit-8 (CCK-8), brand: Targetmol, article number: C0005
10 μL of the compound diluted in gradient was added to the cell plate to give final concentrations of the compounds as 500, 166.67, 55.56, 18.52, 6.17, 2.06, 0.69, 0.23 and 0.08 nM. • d.

[3] = tested on: NCI-H3122 cells; assay: In vivo pharmacodynamic study, subcutaneously implanted tumor NCI-H3122 (two-sided model); design: species or system BALB/c nude mouse
Experimental: (§1) Passages were treated twice a week. When the cell number reached requirement, the cells were collected, counted and inoculated.
(§2) Administration mode and frequency: oral gavage was carried out with an administration volume of 10 mL/kg, and the model group was administered with the same volume of solvent. The administration was once per day and continuously carried out for 16 days.
(§3) General conditions such as spirit, activity, food intake and the like of the mice were observed every day, and the weight was measured thrice every week; the short diameter (a) and the long diameter (b) of each mouse tumor were measured thrice a week with a vernier caliper, and the tumor volume was calculated according to the formula (a^2×b)/2. The Relative Tumor Volume (RTV) was calculated from the measured tumor volume, wherein RTV=Vt/V0, wherein V0 was the tumor volume at random grouping (i.e., d0) and Vt was the tumor volume at each measurement (i.e., dn). The relative tumor proliferation rate of the evaluation index of the anti-tumor activity was calculated according to the following formula: relative tumor proliferation rate T/C (%): […]
(§4) Note: TRTV: treatment group RTV; CRTV model control group RTV.

[4] = tested on: NCI-H1975 EGFR DTC(C797S/T790M/Del19) cells; assay: In vivo pharmacodynamic study, subcutaneously implanted tumor NCI-H1975 EGFR DTC(C797S/T790M/Del19) (two-sided model); design: species or system BALB/c nude mouse
Experimental: as §1, §2, §3, §4

[5] = 20 mg/kg oral gavage once per day
[6] = 40 mg/kg oral gavage once per day

EGFR-WT, sequence (P00533 25-1210): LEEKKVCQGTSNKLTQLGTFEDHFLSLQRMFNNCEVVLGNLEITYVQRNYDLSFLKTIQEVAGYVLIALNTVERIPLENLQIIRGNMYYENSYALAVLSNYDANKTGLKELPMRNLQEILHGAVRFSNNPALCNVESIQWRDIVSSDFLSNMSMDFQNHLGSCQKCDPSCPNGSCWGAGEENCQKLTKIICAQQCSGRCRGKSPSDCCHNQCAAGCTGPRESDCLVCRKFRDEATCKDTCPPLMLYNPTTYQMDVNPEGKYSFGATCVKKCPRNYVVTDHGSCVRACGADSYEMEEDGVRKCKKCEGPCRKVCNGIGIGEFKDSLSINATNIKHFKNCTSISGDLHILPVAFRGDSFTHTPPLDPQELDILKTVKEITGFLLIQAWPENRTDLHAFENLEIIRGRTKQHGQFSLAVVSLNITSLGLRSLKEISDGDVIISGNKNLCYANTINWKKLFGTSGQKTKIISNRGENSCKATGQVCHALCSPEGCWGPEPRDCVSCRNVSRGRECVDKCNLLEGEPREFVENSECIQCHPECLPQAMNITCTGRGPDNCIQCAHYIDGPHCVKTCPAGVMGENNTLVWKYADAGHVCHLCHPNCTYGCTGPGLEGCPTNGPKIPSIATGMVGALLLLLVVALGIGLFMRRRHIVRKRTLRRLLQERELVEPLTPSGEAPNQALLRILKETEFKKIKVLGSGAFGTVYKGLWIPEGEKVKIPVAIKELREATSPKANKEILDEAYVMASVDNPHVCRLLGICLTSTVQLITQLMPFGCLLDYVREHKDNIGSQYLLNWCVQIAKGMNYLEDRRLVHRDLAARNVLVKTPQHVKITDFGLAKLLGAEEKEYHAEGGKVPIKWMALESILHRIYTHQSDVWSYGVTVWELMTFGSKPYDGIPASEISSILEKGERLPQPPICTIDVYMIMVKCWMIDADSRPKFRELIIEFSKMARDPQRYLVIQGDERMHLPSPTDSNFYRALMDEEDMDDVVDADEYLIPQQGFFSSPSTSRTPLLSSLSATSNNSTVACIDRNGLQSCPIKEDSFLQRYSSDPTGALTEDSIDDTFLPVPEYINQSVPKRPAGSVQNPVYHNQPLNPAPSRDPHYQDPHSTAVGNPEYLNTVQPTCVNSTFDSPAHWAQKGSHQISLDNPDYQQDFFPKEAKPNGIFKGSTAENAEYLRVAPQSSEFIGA

COc1cc(N2CCC(N3CCN(C)CC3)CC2)c(Cl)cc1Nc1ncc(Br)c(Nc2ccc(C)cc2P(C)(C)=O)n1 [Compound 14]
IC50 [1]: 0.0659 µM

COc1cc(N2CCC(N3CCN(C)CC3)CC2)c(C)cc1Nc1ncc(Br)c(Nc2ccc(C)cc2P(C)(C)=O)n1 [Compound 2]
IC50 ([2]; first test, read-out: First test IC50): 0.0151 µM
IC50 ([2]; second test, read-out: Second test IC50): 0.0104 µM
NCI-H3122 Tumor volume Day 0 [3, 5]: 116 mm^3
NCI-H3122 T/C Day 2 [3, 5]: 81.79%
NCI-H3122 Tumor volume Day 2 [3, 5]: 115 mm^3
NCI-H3122 T/C Day 4 [3, 5]: 49.46%
NCI-H3122 Tumor volume Day 4 [3, 5]: 92 mm^3
NCI-H3122 T/C Day 6 [3, 5]: 34.18%
NCI-H3122 Tumor volume Day 6 [3, 5]: 84 mm^3
NCI-H3122 T/C Day 9 [3, 5]: 19.71%
NCI-H3122 Tumor volume Day 9 [3, 5]: 74 mm^3
NCI-H3122 T/C Day 11 [3, 5]: 13.58%
NCI-H3122 Tumor volume Day 11 [3, 5]: 63 mm^3
NCI-H3122 T/C Day 13 [3, 5]: 10.25%
NCI-H3122 Tumor volume Day 13 [3, 5]: 58 mm^3
NCI-H3122 T/C Day 16 [3, 5]: 8.16%
NCI-H3122 Tumor volume Day 16 [3, 5]: 61 mm^3
NCI-H3122 Tumor volume Day 0 [3, 6]: 116 mm^3
NCI-H3122 T/C Day 2 [3, 6]: 72.16%
NCI-H3122 Tumor volume Day 2 [3, 6]: 101 mm^3
NCI-H3122 T/C Day 4 [3, 6]: 29.76%
NCI-H3122 Tumor volume Day 4 [3, 6]: 54 mm^3
NCI-H3122 T/C Day 6 [3, 6]: 19.38%
NCI-H3122 Tumor volume Day 6 [3, 6]: 47 mm^3
NCI-H3122 T/C Day 9 [3, 6]: 8.54%
NCI-H3122 Tumor volume Day 9 [3, 6]: 33 mm^3
NCI-H3122 T/C Day 11 [3, 6]: 7.2%
NCI-H3122 Tumor volume Day 11 [3, 6]: 34 mm^3
NCI-H3122 T/C Day 13 [3, 6]: 5.28%
NCI-H3122 Tumor volume Day 13 [3, 6]: 32 mm^3
NCI-H3122 T/C Day 16 [3, 6]: 3.6%
NCI-H3122 Tumor volume Day 16 [3, 6]: 28 mm^3
NCI-H1975 EGFR DTC(C797S/T790M/Del19) Tumor volume Day 0 [4, 5]: 110 mm^3
NCI-H1975 EGFR DTC(C797S/T790M/Del19) T/C Day 2 [4, 5]: 75.84%
NCI-H1975 EGFR DTC(C797S/T790M/Del19) Tumor volume Day 2 [4, 5]: 147 mm^3
NCI-H1975 EGFR DTC(C797S/T790M/Del19) T/C Day 4 [4, 5]: 66.68%
NCI-H1975 EGFR DTC(C797S/T790M/Del19) Tumor volume Day 4 [4, 5]: 235 mm^3
NCI-H1975 EGFR DTC(C797S/T790M/Del19) T/C Day 6 [4, 5]: 56.63%
NCI-H1975 EGFR DTC(C797S/T790M/Del19) Tumor volume Day 6 [4, 5]: 321 mm^3
NCI-H1975 EGFR DTC(C797S/T790M/Del19) T/C Day 9 [4, 5]: 43.36%
NCI-H1975 EGFR DTC(C797S/T790M/Del19) Tumor volume Day 9 [4, 5]: 480 mm^3
NCI-H1975 EGFR DTC(C797S/T790M/Del19) T/C Day 11 [4, 5]: 40.68%
NCI-H1975 EGFR DTC(C797S/T790M/Del19) Tumor volume Day 11 [4, 5]: 583 mm^3
NCI-H1975 EGFR DTC(C797S/T790M/Del19) T/C Day 13 [4, 5]: 40.09%
NCI-H1975 EGFR DTC(C797S/T790M/Del19) Tumor volume Day 13 [4, 5]: 720 mm^3
NCI-H1975 EGFR DTC(C797S/T790M/Del19) T/C Day 16 [4, 5]: 37.95%
NCI-H1975 EGFR DTC(C797S/T790M/Del19) Tumor volume Day 16 [4, 5]: 1065 mm^3
NCI-H1975 EGFR DTC(C797S/T790M/Del19) Tumor volume Day 0 [4, 6]: 113 mm^3
NCI-H1975 EGFR DTC(C797S/T790M/Del19) T/C Day 2 [4, 6]: 67.13%
NCI-H1975 EGFR DTC(C797S/T790M/Del19) Tumor volume Day 2 [4, 6]: 133 mm^3
NCI-H1975 EGFR DTC(C797S/T790M/Del19) T/C Day 4 [4, 6]: 50.41%
NCI-H1975 EGFR DTC(C797S/T790M/Del19) Tumor volume Day 4 [4, 6]: 177 mm^3
NCI-H1975 EGFR DTC(C797S/T790M/Del19) T/C Day 6 [4, 6]: 39.48%
NCI-H1975 EGFR DTC(C797S/T790M/Del19) Tumor volume Day 6 [4, 6]: 217 mm^3
NCI-H1975 EGFR DTC(C797S/T790M/Del19) T/C Day 9 [4, 6]: 24.87%
NCI-H1975 EGFR DTC(C797S/T790M/Del19) Tumor volume Day 9 [4, 6]: 269 mm^3
NCI-H1975 EGFR DTC(C797S/T790M/Del19) T/C Day 11 [4, 6]: 22.07%
NCI-H1975 EGFR DTC(C797S/T790M/Del19) Tumor volume Day 11 [4, 6]: 308 mm^3
NCI-H1975 EGFR DTC(C797S/T790M/Del19) T/C Day 13 [4, 6]: 18.98%
NCI-H1975 EGFR DTC(C797S/T790M/Del19) Tumor volume Day 13 [4, 6]: 327 mm^3
NCI-H1975 EGFR DTC(C797S/T790M/Del19) T/C Day 16 [4, 6]: 14.36%
NCI-H1975 EGFR DTC(C797S/T790M/Del19) Tumor volume Day 16 [4, 6]: 385 mm^3
